Biological target: T1, acetylcholine muscarinic M1 receptor (Homo sapiens, UniProt P11229)
T1 construct: expressed in transfected cells; host or cells: CHOnfat (CHO cells; also called CHOK1/hM1)
T1 sequence (P11229 1-460): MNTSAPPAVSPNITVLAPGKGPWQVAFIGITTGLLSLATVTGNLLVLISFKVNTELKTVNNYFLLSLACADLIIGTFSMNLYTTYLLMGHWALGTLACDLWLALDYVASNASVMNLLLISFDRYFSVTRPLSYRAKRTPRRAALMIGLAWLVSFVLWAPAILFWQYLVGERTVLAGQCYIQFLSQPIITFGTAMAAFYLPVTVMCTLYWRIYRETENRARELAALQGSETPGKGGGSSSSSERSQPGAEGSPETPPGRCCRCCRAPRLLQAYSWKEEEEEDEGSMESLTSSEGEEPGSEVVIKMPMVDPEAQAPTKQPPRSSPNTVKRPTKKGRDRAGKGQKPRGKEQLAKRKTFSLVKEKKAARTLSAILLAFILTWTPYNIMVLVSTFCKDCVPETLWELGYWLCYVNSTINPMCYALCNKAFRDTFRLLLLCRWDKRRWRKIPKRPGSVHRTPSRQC
Experiment: Muscarinic FLIPR intracellular calcium assay for M1 positive allosteric modulator activity in CHOnfat/hM1 cells
Format: cell-based
Settings: 4 min preincubation, then EC20 acetylcholine (3 nM final), calculated from FLIPR values, read-out: IP Value (inflection point)
Method: The assay studies the effect of one or several concentrations of test compounds on basal or acetylcholine-stimulated Ca^2+ levels using FLIPR.
Compounds are prepared and subjected to a preincubation period of 4 min. Thereafter, a single EC20 concentration of acetylcholine is added to each well (3 nM final). The intracellular Ca^2+ level of each sample is measured and compared to an acetylcholine control to determine any modulatory activity.
Cells: CHOnfat/hM1, hM2, hM3 or hM4 cells are plated 24 hr before the assay at a density of 18,000 cells/well (100 μL) in a 384 well plate. CHOnfat/hM1 and CHOnfat/hM3 Growth Medium: 90% DMEM (Hi Glucose); 10% HI FBS; 2 mM L-glutamine; 0.1 mM NEAA; Pen-Strep; and 1 mg/ml Geneticin, are added. For M2Gqi5CHOnfat and M4Gqi5CHOnfat cells, an additional 600 ug/ml hygromycin is added.
Equipment: 384 well plate, 120 μL addition plate; 96-well Whatman 2 ml Uniplate Incubator, 37° C., 5% CO2; Skatron EMBLA-384 Plate Washer; Multimek Pipetting System; Genesis Freedom 200 System; Mosquito System; Temo Nanoliter Pipetting System; and FLIPR^384 Fluorometric Imaging Plate Reader System are used.
Buffers. Assay Buffer: Hanks Balanced Salt Solution, with 20 mM Hepes, 2.5 mM Probenecid (Sigma P-8761) first dissolved in 1 N NaOH, 1% Bovine Serum Albumin (Sigma A-9647). Dye Loading Buffer: Assay Buffer plus 1% Fetal Bovine Serum and Fluo-4AM/Pluronic Acid Mixture. 2 mM Fluo-4AM ester stock in DMSO (Molecular Probes F-14202) Concentration of 2 μM in buffer for a final concentration of 1 μM in Assay. 20% Pluronic Acid Solution stock, with concentration of 0.04% in Buffer, 0.02% in Assay.
65 μL of 2 mM Fluo-4AM are mixed with 130 μL of 20% Pluronic Acid. The resulting solution and 650 μL FBS is added to the assay buffer for a total volume of 65 mL. Positive Controls: 4-Br-A23187: 10 mM in DMSO; final concentration 10 μM. Acetylcholine: 10 mM in water, working stock at both 20 μM and 30 μM in assay buffer, final concentration of 10 μM. This is used to check the maximum stimulation of the CHOK1/hM1 cells. 20 μM (2×) acetylcholine is added in the preincubation part of the assay, and the 30 μM (3×) stock is added in the second part. (EC20)Acetylcholine: 10 mM in water, working stock of 9 nM (3×), and final concentration in assay is 3 nM. This is used after the preincubation with test compounds. Addition of the EC20 Acetylcholine to each well with a test compound will ascertain any modulator activity. 24 wells contain 3 nM Acetylcholine alone as a control.
Determining Activity of Putative Compounds:
Screening Plate Compounds are titrated in 96-well plates (columns 2-11), 100% DMSO, started at a concentration of 15 mM (150× stock concentration), and 3-fold serial dilutions using Genesis Freedom200 System. Four 96-well plates are combined into a 384-well plate using Mosquito Nanoliter Pipetting System by transferring 1 μl of serial diluted compounds to each well, and 1 mM acetylcholine (100× stock concentration) were added as a control. Using Temo, 49 μl assay buffer is added to each well of the 384-well plate right before assay.
In a 96-well Whatman 2 ml Uniplate, 9 nM Acetylcholine (3×) is pipetted into wells corresponding to the screening compounds, and into control wells. The 30 μM acetylcholine control (3×) is added into control wells, and the 3× agonist plate is transferred into a 384 well plate.
Cells are washed three times with 100 μL of buffer, leaving 30 μL of buffer in each well. Using Multimek, 30 μL of Dye Loading Buffer is added into each well and incubated at 37° C., 5% CO2 for up to one hr.
After 60 min, the cells are washed three times with 100 μL of buffer, leaving 30 μL of buffer in each well. The cell plate, screening plate, and agonist addition plates are placed on the platform in the FLIPR and the door closed. A signal test to check background fluorescence and basal fluorescence signal is performed. Laser intensity is adjusted if necessary. […]

SMILES	EC50
O=c1c2nn(Cc3ccc(-n4cccn4)cc3)c3c(Cl)cccc3c-2nn1[C@H]1CCOC[C@@H]1O (single isomer, unassigned) [Example 63, 6-Chloro-2-(trans-3-hydroxytetrahydro-2H-pyran-4-yl)-5-[4-(1H-pyrazol-1-yl)benzyl]-2,5-dihydro-3H-pyrazolo[4,3-c]cinnolin-3-one]	593 nM
Cc1ccccc1-n1nc2c3ccccc3n(Cc3ccc(Br)cn3)nc-2c1=O [Example 21, 5-[(5-Bromopyridin-2-yl)methyl]-2-(2-methylphenyl)-2,5-dihydro-3H-pyrazolo[4,3-c]cinnolin-3-one]	2860 nM
C[C@@H]1CCOC[C@@H]1n1nc2c3ccccc3n(Cc3ccc(-n4cccn4)cc3)nc-2c1=O (single isomer, unassigned) [Example 73, cis-2-[4-Methyltetrahydro-2,1-pyran-3-yl]-5-[4-(1H-pyrazol-1-yl)benzyl]-2,5-dihydro-3H-pyrazolo[4,3-c]cinnoline-3-one]	771 nM
C[C@H]1CCOC[C@@H]1n1nc2c3ccccc3n(Cc3ccc(-n4cccn4)cc3)nc-2c1=O (single isomer, unassigned) [Example 74]	636 nM
C[C@@H]1CCOC[C@@H]1n1nc2c3ccccc3n(Cc3ccc(-n4cccn4)cc3)nc-2c1=O (single isomer, unassigned) [Example 75, cis-2-[4-Methyltetrahydro-2H-pyran-3-yl]-5-[4-(1H-pyrazol-1-yl)benzyl]-2,5-dihydro-3H-pyrazolo[4,3-c]cinnoline-3-one]	158 nM
Cc1ccccc1-n1nc2c3ccccc3n(Cc3ccc(N4CCOCC4)nc3)nc-2c1=O [Example 81, 2-(2-Methylphenyl)-5-{[6-(morpholin-4-yl)pyridine-3-yl]methyl}-2,5-dihydro-3H-pyrazolo[4,3-c]cinnolin-3-one]	1370 nM
Cc1ccccc1-n1nc2c3ccccc3n(Cc3ccc(-n4ccnc4)nc3)nc-2c1=O [Example 23, 5-{[6-(1H-Imidazol-1-yl)pyridine-3-yl]methyl}-2-(2-methylphenyl)-2,5-dihydro-3H-pyrazolo[4,3-c]cinnolin-3-one]	748 nM
Cc1nc(F)ccc1-n1nc2c3ccccc3n(Cc3ccc(-c4cnn(C)c4)nc3)nc-2c1=O [Example 86, 2-(6-Fluoro-2-methylpyridin-3-yl)-5-{[6-(1-methyl-1H-pyrazol-4-yl)pyridin-3-yl]methyl}-2,5-dihydro-3H-pyrazolo[4,3-c]cinnolin-3-one]	225 nM
O=c1c2nn(Cc3ccc(-n4cccn4)cc3)c3ccccc3c-2nn1CC(O)CO (centres unmarked) [Example 11, 2-(2,3-Dihydroxypropyl)-5-[4-(1H-pyrazol-1-yl)benzyl]-2,5-dihydro-3H-pyrazolo[4,3-c]cinnolin-3-one]	193 nM

The next molecules have a lower EC50 than those just listed; values first:

EC50	SMILES
28 nM	O=c1c2nn(Cc3ccc(-n4cccn4)cc3)c3ccccc3c-2nn1-c1ccccc1F [Example 1, 2-(2-Fluorophenyl)-5-{[4-(1H-pyrazol-1-yl)phenyl]methyl}-2,5-dihydro-3H-pyrazolo[4,3-c]cinnolin-3-one]
89 nM	CC1CCOCC1n1nc2c3ccccc3n(Cc3ccc(-n4cccn4)cc3)nc-2c1=O (racemic) [Example 71, (±)-2-[cis,trans-4-methyltetrahydro-2H-pyran-3-yl]-5-[4-(1H-pyrazol-1-yl)benzyl]-2,5-dihydro-3H-pyrazolo[4,3-c]cinnolin-3-one]
29 nM	Cc1ccc(-c2ccc(Cn3nc4c(=O)n(-c5cccc(C)c5C)nc-4c4ccccc43)cn2)cn1 [Example 90, 2-(2,3-Dimethylphenyl)-5-[(6′-methyl-2,3′-bipyridin-5-yl)methyl]-2,5-dihydro-3H-pyrazolo[4,3-c]cinnolin-3-one]
47 nM	C[C@H]1CCOC[C@@H]1n1nc2c3ccccc3n(Cc3ccc(-n4cccn4)cc3)nc-2c1=O (single isomer, unassigned) [Example 72, trans-2-[4-Methyltetrahydro-2H-pyran-3-yl]-5-[4-(1H-pyrazol-1-yl)benzyl]-2,5-dihydro-3H-pyrazolo[4,3-c]cinnoline-3-one]
21 nM	O=c1c2nn(Cc3ccc(-n4cccn4)cc3)c3c(Cl)cccc3c-2nn1[C@H]1CCOC[C@@H]1O (single isomer, unassigned) [Example 62, 6-Chloro-2-(trans-3-hydroxytetrahydro-2H-pyran-4-yl)-5-[4-(1H-pyrazol-1-yl)benzyl]-2,5-dihydro-3H-pyrazolo[4,3-c]cinnolin-3-one]
144 nM	Cc1ccccc1-n1nc2c3ccccc3n(Cc3ccc(-c4cnn(C)c4)nc3)nc-2c1=O [Example 25, 2-(2-Methylphenyl)-5-{[6-(1-methyl-1H-pyrazol-4-yl)pyridine-3-yl]methyl}-2,5-dihydro-3H-pyrazolo[4,3-c]cinnolin-3-one]
14 nM	N#Cc1cccc(F)c1-n1nc2c3ccccc3n(Cc3ccc(-n4cccn4)cc3)nc-2c1=O [Example 13, 3-Fluoro-2-(3-oxo-5-{[4-(1H-pyrazol-1-yl)phenyl]methyl}-3,5-dihydro-2H-pyrazolo[4,3-c]cinnolin-2-yl)benzonitrile]
42 nM	O=c1c2nn(Cc3ccc(-n4cccn4)cc3)c3c(Cl)cccc3c-2nn1[C@@H]1CCCC[C@H]1O [Example 61]

From patent publication US8486946B2, “Pyrazolo [4,3-c] cinnolin-3-one M1 receptor positive allosteric modulators” (Merck Sharp & Dohme Corp., priority 2009, dated 2013)
